Results: ChEMBL document CHEMBL1130170, “Orally active trifluoromethyl ketone inhibitors of human leukocyte elastase” (J Med Chem, 1997)
Where a SMILES comes first, the peptide text is derived from it. [ ]: non-standard residue; d: D form. The star is where a group is joined. ξ: configuration not given here. Cbz = O=C(OCc1ccccc1)*; ξV = CC(C)C(N)C(=O)O; CF3 = FC(F)(F)*; Moc = COC(=O)*

Columns and labels:
Neutrophil elastase = target: T1, Neutrophil elastase (Homo sapiens, UniProt P08246); assay: Binding affinity for human leukocyte elastase
T1 sequence (P08246 whole entry): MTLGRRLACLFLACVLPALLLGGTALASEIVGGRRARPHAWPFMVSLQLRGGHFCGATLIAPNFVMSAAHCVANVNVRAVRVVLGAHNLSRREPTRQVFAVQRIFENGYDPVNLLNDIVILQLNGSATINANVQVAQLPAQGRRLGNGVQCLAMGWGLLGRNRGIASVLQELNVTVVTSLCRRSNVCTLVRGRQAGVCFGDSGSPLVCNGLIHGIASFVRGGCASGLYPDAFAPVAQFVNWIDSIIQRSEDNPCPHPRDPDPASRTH

Cricetinae gen. sp. [1] = assay: Percent inhibition of elastase-induced lung damage by 10 mg/kg dosed orally, 30 minutes prior to the instillation of 50 ug of elastase; assay type: functional, Cricetulus griseus; settings: Cricetinae gen. sp., po
Cricetinae gen. sp. [2] = assay: Effective dose in the Acute Hemarrhagic Assay model after oral administration; assay type: functional, Cricetulus griseus

Row | Structure (SMILES) | Ki (Neutrophil elastase) [nM] | inhibition in vivo at 10 mg/kg (Cricetinae gen. sp. [1]) [%] | ED50 (Cricetinae gen. sp. [2]) [mg/kg]
1 | CCCNC(=O)C(F)(F)C(=O)[C@@H](NC(=O)[C@@H]1CCCN1C(=O)[C@@H](NC(=O)c1ccc(OC)cc1)C(C)C)C(C)C | 8.9 | 17 | 
2 | COc1ccc(C(=O)N[C@H](C(=O)N2CCC[C@H]2C(=O)N[C@H](C(=O)C(F)(F)CN)C(C)C)C(C)C)cc1 |  | 10 | 
3 | CC(C)[C@H](NC(=O)Oc1ccccc1)C(=O)N1CCC[C@H]1C(=O)N[C@H](C(=O)C(F)(F)CNC(=O)c1cccnc1)C(C)C | 0.35 | 46 | 
4 | COC(=O)c1ccc2oc(C(=O)[C@@H](NC(=O)[C@@H]3CCCN3C(=O)[C@@H](NC(=O)c3ccc(OC)cc3)C(C)C)C(C)C)nc2c1 | 0.65 | 0 | 
5 | CCCCOC(=O)NCC(F)(F)C(=O)[C@@H](NC(=O)[C@@H]1CCCN1C(=O)[C@@H](NC(=O)Oc1ccccc1)C(C)C)C(C)C | 0.35 | 0 | 
6 | CC(C)[C@H](NC(=O)Oc1ccccc1)C(=O)N1CCC[C@H]1C(=O)N[C@H](C(=O)C(F)(F)CNCc1ccccc1)C(C)C |  | 18 | 
7 | COC(=O)c1ccc2oc(C(=O)[C@@H](NC(=O)[C@@H]3CCCN3C(=O)[C@@H](NC(=O)Oc3ccccc3)C(C)C)C(C)C)nc2c1 | 0.64 | 12 | 
8 | CC(C)[C@H](NC(=O)[C@@H]1CCCN1C(=O)[C@@H](NC(=O)OCc1ccccc1)C(C)C)C(=O)c1nc2ccccc2o1 | 4.7 | 0 | 
9 | COc1ccc(C(=O)N[C@H](C(=O)N2CCC[C@H]2C(=O)N[C@H](C(=O)C(F)(F)C(=O)NCc2ccccn2)C(C)C)C(C)C)cc1 | 3.1 | 43 | 
10 | COc1ccc(C(=O)N[C@H](C(=O)N2CCC[C@H]2C(=O)N[C@H](C(=O)C(F)(F)CNC(=O)c2ccccc2)C(C)C)C(C)C)cc1 | 6.4 | 18 | 
11 | CC(C)[C@H](NC(=O)Oc1ccccc1)C(=O)N1CCC[C@H]1C(=O)N[C@H](C(=O)C(F)(F)CN)C(C)C |  | 45 | 
12 | CC(=O)NCC(F)(F)C(=O)[C@@H](NC(=O)[C@@H]1CCCN1C(=O)[C@@H](NC(=O)Oc1ccccc1)C(C)C)C(C)C | 2.3 | 42 | 
13 | CC(C)OC(=O)N[C@H](C(=O)N1CCC[C@H]1C(=O)NC(C(=O)C(F)(F)F)C(C)C)C(C)C (stereo partly specified) | 33 | 69 | 
14 | CC(C)[C@H](NC(=O)Oc1ccccc1)C(=O)N1CCC[C@H]1C(=O)N[C@H](C(=O)C(F)(F)C(=O)NCc1ccccn1)C(C)C | 1.7 | 69 | 
15 | CCCCOC(=O)NCC(F)(F)C(=O)[C@@H](NC(=O)[C@@H]1CCCN1C(=O)[C@@H](NC(=O)c1ccc(OC)cc1)C(C)C)C(C)C | 3.4 | 24 | 
16 | COc1ccc(C(=O)N[C@H](C(=O)N2CCC[C@H]2C(=O)N[C@H](C(=O)C(F)(F)CNCc2ccccc2)C(C)C)C(C)C)cc1 |  | 17 | 
17 | CCCCOC(=O)NCC(F)(F)C(=O)[C@@H](NC(=O)[C@@H]1CCCN1C(=O)[C@@H](NC(=O)OCc1ccccc1)C(C)C)C(C)C | 1.1 | 0 | 
18 | COC(=O)c1ccc2oc(C(=O)[C@@H](NC(=O)[C@@H]3CCCN3C(=O)[C@@H](NC(=O)OCc3ccccc3)C(C)C)C(C)C)nc2c1 | 0.58 | 34 | 

Row | Structure (SMILES) | Ki (Neutrophil elastase) [nM] | inhibition in vivo at 10 mg/kg (Cricetinae gen. sp. [1]) [%] | ED50 (Cricetinae gen. sp. [2]) [mg/kg]
19 | CC(C)[C@H](NC(=O)OC1CCCC1)C(=O)N1CCC[C@H]1C(=O)N[C@H](C(=O)C(F)(F)F)C(C)C | 1.9 | 43 | 
20 | CCOC(=O)N[C@H](C(=O)N1CCC[C@H]1C(=O)N[C@H](C(=O)C(F)(F)F)C(C)C)C(C)C | 43 | 74 | 
21 | CC(C)[C@H](NC(=O)COc1ccccc1)C(=O)N1CCC[C@H]1C(=O)N[C@H](C(=O)C(F)(F)F)C(C)C | 17 | 8 | 
22 | CC(C)COC(=O)N[C@H](C(=O)N1CCC[C@H]1C(=O)N[C@H](C(=O)C(F)(F)F)C(C)C)C(C)C | 20 | 3 | 
23 | COc1ccc(C(=O)N[C@H](C(=O)N2CCC[C@H]2C(=O)N[C@H](C(=O)c2nc3cc(NC(C)=O)ccc3o2)C(C)C)C(C)C)cc1 | 8 | 11 | 
24 | CC(C)[C@H](NC(=O)OCc1ccccc1)C(=O)N1CCC[C@H]1C(=O)N[C@H](C(=O)C(F)(F)C(N)=O)C(C)C |  | 17 | 
25 | CNC(=O)C(F)(F)C(=O)[C@@H](NC(=O)[C@@H]1CCCN1C(=O)[C@@H](NC(=O)Oc1ccccc1)C(C)C)C(C)C |  | 80 | 
26 | CNC(=O)C(F)(F)C(=O)[C@@H](NC(=O)[C@@H]1CCCN1C(=O)[C@@H](NC(=O)c1ccc(OC)cc1)C(C)C)C(C)C | 3.8 | 25 | 
27 | CNC(=O)C(F)(F)C(=O)[C@@H](NC(=O)[C@@H]1CCCN1C(=O)[C@@H](NC(=O)OCc1ccccc1)C(C)C)C(C)C |  | 7 | 
28 | CC(C)[C@H](NC(=O)c1ccc(C(=O)NS(=O)(=O)c2ccccc2)cc1)C(=O)N1CCC[C@H]1C(=O)N[C@H](C(=O)C(F)(F)C(=O)NCCc1ccccc1)C(C)C | 0.06 |  | 
29 | CC(C)OC(=O)N[C@H](C(=O)N1CCC[C@H]1C(=O)N[C@H](C(=O)C(F)(F)F)C(C)C)C(C)C | 5.8 | 80 | 3
30 | COC(=O)c1ccc2nc(C(=O)[C@@H](NC(=O)[C@@H]3CCCN3C(=O)[C@@H](NC(=O)Oc3ccccc3)C(C)C)C(C)C)oc2c1 | 0.64 | 27 | 
31 | CC(C)[C@H](NC(=O)OCc1ccccc1)C(=O)N1CCC[C@H]1C(=O)N[C@H](C(=O)C(F)(F)CNCc1ccccc1)C(C)C |  | 0 | 
32 | COc1ccc(C(=O)N[C@H](C(=O)N2CCC[C@H]2C(=O)N[C@@H](C(=O)C(F)(F)C(=O)NCc2ccccn2)C(C)C)C(C)C)cc1 | 58 | 31 | 
33 | CC(C)[C@H](NC(=O)Oc1ccccc1)C(=O)N1CCC[C@H]1C(=O)N[C@H](C(=O)C(F)(F)F)C(C)C | 1.5 | 93 | 
34 | CC(C)[C@H](NC(=O)OCc1ccccc1)C(=O)N1CCC[C@H]1C(=O)N[C@H](C(=O)C(F)(F)F)C(C)C (Cbz-Val-Pro-Val-CF3) |  | 42 | 
35 | COC(=O)N[C@H](C(=O)N1CCC[C@H]1C(=O)NC(C(=O)C(F)(F)F)C(C)C)C(C)C (stereo partly drawn) (Moc-Val-Pro-[ξV]-CF3) |  | 92 | 
36 | COc1ccc(C(=O)N[C@H](C(=O)N2CCC[C@H]2C(=O)N[C@H](C(=O)C(F)(F)F)C(C)C)C(C)C)cc1 (stereo in doubt; 1a) |  | 70 | 
